Results on one compound are retold here after patent US8816119B2, “Arylamide derivatives having antiandrogenic properties” (Medeia Therapeutics Ltd, priority 2010, dated 2014).

Type in all cases: cell-based
For assay [1], the target named is T1, T877A AR (Homo sapiens, UniProt P10275, T878A).
T1 construct: expressed in transfected cells; host or cells: COS-1
T1 sequence (P10275 1-920 T878A): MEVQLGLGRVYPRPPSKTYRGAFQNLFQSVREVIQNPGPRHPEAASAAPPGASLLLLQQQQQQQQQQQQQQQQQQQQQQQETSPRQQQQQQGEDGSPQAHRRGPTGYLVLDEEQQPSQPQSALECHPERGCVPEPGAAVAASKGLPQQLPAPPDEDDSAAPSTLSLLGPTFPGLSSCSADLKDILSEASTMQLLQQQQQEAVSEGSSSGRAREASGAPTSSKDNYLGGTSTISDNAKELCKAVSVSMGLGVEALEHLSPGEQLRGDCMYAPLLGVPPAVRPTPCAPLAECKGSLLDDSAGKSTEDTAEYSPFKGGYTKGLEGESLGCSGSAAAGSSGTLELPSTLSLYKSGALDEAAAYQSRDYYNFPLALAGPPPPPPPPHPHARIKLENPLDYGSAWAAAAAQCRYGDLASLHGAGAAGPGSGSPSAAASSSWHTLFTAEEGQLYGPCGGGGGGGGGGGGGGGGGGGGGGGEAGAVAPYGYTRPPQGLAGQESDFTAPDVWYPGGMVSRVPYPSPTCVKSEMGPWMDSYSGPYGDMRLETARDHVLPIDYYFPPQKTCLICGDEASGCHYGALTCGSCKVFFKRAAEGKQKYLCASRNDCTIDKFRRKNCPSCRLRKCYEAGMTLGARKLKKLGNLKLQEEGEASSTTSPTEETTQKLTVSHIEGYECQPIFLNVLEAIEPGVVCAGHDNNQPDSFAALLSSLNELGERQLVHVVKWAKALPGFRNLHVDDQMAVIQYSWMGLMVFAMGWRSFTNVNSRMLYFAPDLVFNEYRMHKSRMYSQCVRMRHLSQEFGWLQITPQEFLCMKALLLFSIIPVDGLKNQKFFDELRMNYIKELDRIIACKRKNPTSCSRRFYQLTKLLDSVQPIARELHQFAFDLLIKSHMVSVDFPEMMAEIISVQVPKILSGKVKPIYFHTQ
The assay can be described thus: Agonism in T877A mutant AR, AR transactivation assay in COS-1 cells, test compounds alone. To be noted: 10 microM, compound alone.
From the text: The transfected cells were exposed to test compounds alone. Testosterone was used as reference agonist, and its' relative LUC activity representing AR-dependent transcription was set to 100%.

In assay [2] the target is T2, W741L AR (Homo sapiens, UniProt P10275, W742L).
T2 construct: expressed in transfected cells; host or cells: COS-1
T2 sequence (P10275 1-920 W742L): T1 sequence (P10275 1-920 T878A) with W742L, A878T
The assay is described as follows: Agonism in W741L mutant AR, AR transactivation assay in COS-1 cells, test compounds alone. Conditions: 10 microM, compound alone. The method, then:
COS-1 (American Type Culture Collection) were cultured in DMEM supplemented with 10% FBS, penicillin (6.25 U/ml) and streptomycin (6.25 μg/ml) and seeded onto 48-well plates (50 000 cells/well) one day before transfection. Transfection media containing 2.5% charcoal-stripped FBS in DMEM was changed on cells 4 h prior to transfection. Cells were transfected with 50 ng of reporter gene plasmid (pPB-286/+32-LUC; PB, probasin promoter), 5 ng of AR expression plasmid (pSG5-hAR), and 5 ng of pCMVβ (an internal, beta-galactosidase control for transfection efficiency and cell growth) using TranslT-LT1 reagent (Mirus Bio Corporation) according to the manufacturer's instructions. […] After 18 h, reporter gene activities (LUC and beta-galactosidase) were determined according to standard methods. The data are expressed as relative LUC activity (luciferase light units divided by beta-galactosidase A420nm to control for transfection efficiency) of a given compound in relation to the activity of a reference test item (=100%).
Agonism in W741L AR of compounds of the present invention was measured in AR transactivation assay in COS-1 cells as described above except that AR expression vector harboring the W741L mutation was used instead of the WT AR. The transfected cells were exposed to test compounds alone.

For assay [3], the target named is T3, WT AR (Homo sapiens, UniProt P10275).
T3 construct: expressed in transfected cells; host or cells: COS-1
T3 sequence (P10275 1-920): T1 sequence (P10275 1-920 T878A) with A878T
The assay can be described thus: Antagonism in WT AR, AR transactivation reporter gene assay in COS-1 cells, competitive setting with 50 nM testosterone. To be noted: 18 h. The method, then: After 18 h, reporter gene activities (LUC and beta-galactosidase) were determined according to standard methods. The data are expressed as relative LUC activity (luciferase light units divided by beta-galactosidase A420nm to control for transfection efficiency) of a given compound in relation to the activity of a reference test item (=100%).
Antagonism in WT AR of compounds of the present invention was measured in AR transctivation assay in COS-1 cells in competitive setting using testosterone as a reference agonist as described above. […] Relative LUC activity representing AR-dependent transcription obtained by exposure to testosterone alone was set to 100%.
Background: In a reporter assay the amount or activity of a reporter protein is the signal.

Numbering of substitutions follows the chain as printed.

Turning to `N#Cc1ccc(NC(=O)C(O)(CS(=O)(=O)c2ccc(F)c(F)c2)c2ccc(C(F)(F)F)cc2)cc1Cl` (stereo not shown) [Example 10, N-(3-chloro-4-cyanophenyl)-3-[(3,4-difluorobenzene)sulfonyl]-2-hydroxy-2-[4-(trifluoromethyl)phenyl]propanamide], the “Relative LUC activity (%) in T877A AR in relation to testosterone (100%)” value in assay [1] came out at 1%. The “Relative LUC activity (%) in W741L AR in relation to BIC (100%)” value in assay [2] was determined as 3%. For the same compound, the “Relative LUC activity (%) indicating residual androgen activity in relation to testosterone (100%)” value in assay [3] (1 microM compound) was found to be 23%; in assay [3] (10 microM compound), 6%.
